Experimental findings from article PMC13129453, “Targeting the US21 viroporin of human cytomegalovirus by calcium channel blockers as a new antiviral strategy” (Current Research in Microbial Sciences, 2026) are described below.

Structures are written as SMILES. “And” between values parts separate entries of the source, which are not always exact repeats. Equal entries are not always repeated. Where two headings read alike, the source gives them in different places.

One may read the EC50 as the concentration needed to bring the measured effect to its halfway point. In general, EC90 refers to the point of the concentration-response curve where the effect stands at 90%. As a reminder, the CC50 is the concentration giving 50% cytotoxicity.

Data set [1] relates to HCMV TRwt. Description: Focus-forming reduction assay (FFRA), HCMV TRwt. The class given is cell-based, Human cytomegalovirus.
The test system of data set [2] is HCMV VR1814. Description: Focus-forming reduction assay (FFRA), HCMV VR1814. Conditions: hT-HFF; for EC50 / EC90: Human betaherpesvirus 5, VR1814, FFRA, 96 h p.i.; for SI: VR1814, ratio between CC50 and EC50. Type of data set: cell-based, Human cytomegalovirus. The protocol:
(§1) The antiviral activity of CCBs was evaluated against VR1814 and TRwt by means of the focus-forming reduction assay (FFRA) procedure. Briefly, hT-HFFs were seeded on 96-well plates (20,000 cells/well) and, after 24 h, treated with different concentrations of compounds (maximum concentration 20 μM, or 100 μM for felodipine) 1 h prior to and during viral infection (50 PFU/well). Control HCMV-infected cells were exposed to vehicle DMSO at 0.04%, or 0.2% for felodipine). After virus adsorption (2 h at 37 °C), virus inoculum was removed and infected cell cultures were incubated in medium containing the corresponding compounds plus 1.2% (w/v) methylcellulose (Merck) and 5% (v/v) FBS. At 96 h post infection (p.i.), cell monolayers were fixed and subjected to indirect immunoperoxidase staining (IPA) with the HCMV IEA mAb (diluted 1:150). Viral foci were microscopically counted, and the mean plaque counts for each drug concentration were expressed as a percentage of the mean plaque counts of control virus (DMSO). GraphPad Prism software was used to determine the concentration of compounds producing 50 and 90% reductions in viral titers (EC50 and EC90).

The test system of data set [3] is HCMV TRUS21stop. Description: microbe, parasite or virus in culture. Type of data set: cell-based, Human cytomegalovirus.
Data set [4] concerns HCMV VR1814. Description: Focus-forming reduction assay (FFRA), HCMV VR1814. Type of data set: cell-based, Human cytomegalovirus.
Data set [5] is described as follows: Cell cytotoxicity assay (MTT), HMVECs. Type of data set: cell-based. Conditions: human; for CC50 at 5 days: HMVECs, HMVEC, MTT, five days of treatment. The protocol: (§2) The effect of test compounds on cell viability was determined in hT-HFFs, HMVECs and T-REx-U2OS-US21-HA cells seeded in p96-well (12,000 cells/well). After 24 h, cells were treated with compounds at concentrations starting from 300 μM and then serially diluted in culture medium, or with DMSO alone starting from 0.6% v/v as the vehicle control. For cell viability of drug combination studies, the control with DMSO was from 0.07%.

Data set [6] has as its target T1, pUS21 (Human cytomegalovirus, UniProt P09723).
T1 construct: expressed in transfected cells; host or cells: T-REx-U2OS-US21-HA (human osteosarcoma U2OS, stably transfected, tetracycline-inducible)
Type of data set: cell-based. On the procedure:
Calcium measurement was determined applying the Ca^2+ add back protocol as previously described ([Luganini et al., 2023]). Briefly, non-induced (NI) or induced (I) T-REx-U2OS-US21-HA cell lines for 48 h with tetracycline, plated at a density of 5000 cells/cm^2 on glass coverslips, were loaded (45 min at 37 °C) with 2 μM Fura-2 AM (Invitrogen, Waltham, MA, USA) and excited at two alternating wavelengths: 340 and 380 nm. Fluorescence emission was captured using a Nikon Eclipse TE-2000S inverted microscope equipped with the MetaFluor Imaging System (Molecular Devices, San Jose, CA, USA). Ratiometric cytosolic Ca^2+ ([Ca^2+]c) quantification was expressed as the ratio (R) of fluorescence emitted at 510 nm for the two excitation wavelengths. Images were acquired every 3 s. Ca^2+ imaging analysis was conducted by peak amplitude quantification using Clampfit 11.1 (Axon pClamp, Molecular Devices). Responses with a ΔR340/380 > 0.05 were taken in account. To assess the ER Ca^2+ content in T-REx-U2OS-US21-HA NI or I cells, depletion of the ER Ca^2+ pool was triggered using IP3mix in the absence of extracellular Ca^2+ (0 Ca^2+). IP3mix consisted of thapsigargin (2 μM), histamine (100 μM), and ATP (100 μM). The experiments were performed in acute treatment in presence of CCBs or DMSO, as control at 0.01%.

The subject of data set [7] is HCMV TRwt. Description: Focus-forming reduction assay (FFRA), HCMV TRwt. The following applies: for EC50 / EC90: Human betaherpesvirus 5, hT-HFF, FFRA, 96 h p.i.; for SI: hT-HFF, ratio between CC50 and EC50. The class given is cell-based, Human cytomegalovirus. The protocol:
as §1

The nature of data set [8]: Cell cytotoxicity assay (MTT), hT-HFFs. Type of data set: cell-based. The following applies: human; for CC50 at 5 days: hT-HFFs, hT-HFF, MTT, five days of treatment. On the procedure:
as §2

Where [9] appears, read: HMVEC, TRwt, ratio between CC50 and EC50.
[10] abbreviates: Human betaherpesvirus 5, HMVEC, TRwt, FFRA, 96 h p.i., read-out: EC50.
The mark [11] stands for this setting: Human betaherpesvirus 5, HMVEC, TRwt, FFRA, 96 h p.i., read-out: EC90.
The mark [12] stands for this setting: Human betaherpesvirus 5, hT-HFF, TRUS21stop, FFRA, 96 h p.i., read-out: EC50.
The mark [13] stands for this setting: Human betaherpesvirus 5, hT-HFF, TRUS21stop, FFRA, 96 h p.i., read-out: EC90.
Where [14] appears, read: hT-HFF, TRUS21stop, ratio between CC50 and EC50.
The mark [15] stands for this setting: HMVEC, VR1814, ratio between CC50 and EC50.
Setting [16] is: Human betaherpesvirus 5, HMVEC, VR1814, FFRA, 96 h p.i., read-out: EC50.
Setting [17] is: Human betaherpesvirus 5, HMVEC, VR1814, FFRA, 96 h p.i., read-out: EC90.
[18] abbreviates: Human betaherpesvirus 5, HMVEC, 96 h.

T1 sequence (P09723 whole entry): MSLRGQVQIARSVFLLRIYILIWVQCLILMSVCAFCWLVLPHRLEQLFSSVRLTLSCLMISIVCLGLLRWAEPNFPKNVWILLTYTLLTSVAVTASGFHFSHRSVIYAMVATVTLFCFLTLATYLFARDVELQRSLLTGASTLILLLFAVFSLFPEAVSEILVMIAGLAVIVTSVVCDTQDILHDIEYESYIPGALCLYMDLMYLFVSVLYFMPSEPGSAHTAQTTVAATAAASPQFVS

As to `CC1=C(C(=O)OC(C)C)C(c2cccc([N+](=O)[O-])c2)C(C(=O)OC2CN(C(c3ccccc3)c3ccccc3)C2)=C(N)N1` (stereo not shown) [Azelnidipine, azelnidipine], the SI in data set [1] (setting [9]) turned out to be 160.87; in data set [2], 64.87; in data set [3] (setting [14]) it was 35.16; in data set [4] (setting [15]), 110.37; in data set [7], 125.50. Further, the EC50 came out at 2.12 ± 0.14 µM in data set [1] (setting [10]); 2.96 ± 0.53 µM in data set [2]; 5.46 ± 0.17 µM in data set [3] (setting [12]); 3.09 ± 0.46 µM in data set [4] (setting [16]); 1.53 ± 0.32 µM in data set [7]. Also, the EC90 in data set [1] (setting [11]) was found to be 9.53 ± 0.76 µM; in data set [2], 14.7 ± 0.39 µM; in data set [3] (setting [13]), 19.36 ± 0.06 µM; in data set [4] (setting [17]), 19 ± 0.27 µM; in data set [7], 12.1 ± 0.27 µM. Moreover, the CC50 at 5 days in data set [5] came out at 341 ± 20.1 µM; in data set [8], 192 ± 20.5 µM. The “Ca2+-conducting activity of pUS21 (Ca2+ release from the ER after IP3mix)” value (“Ca2+-conducting activity of pUS21” for short) in data set [6] was “can hamper the Ca^2+-mobilizing activity of pUS21”.
Turning to `CC1=C(C(=O)OCCN(Cc2ccccc2)c2ccccc2)C(c2cccc([N+](=O)[O-])c2)C(P2(=O)OCC(C)(C)CO2)=C(C)N1` (stereo not shown) [Efonidipine, efonidipine], the SI is given as 83.21 in data set [1] (setting [9]); 111.74 in data set [2]; 47.77 in data set [3] (setting [14]); 82.28 in data set [4] (setting [15]); 106.82 in data set [7]. The EC50 in data set [1] (setting [10]) was determined as 3.55 ± 0.13 µM; in data set [2] it was 3.04 ± 0.23 µM; in data set [3] (setting [12]), 7.11 ± 0.05 µM; in data set [4] (setting [16]) it was 3.59 ± 0.67 µM; in data set [7], 3.18 ± 0.07 µM. Also, the EC90 was 6.58 ± 0.91 µM in data set [1] (setting [11]); 13.6 ± 2.46 µM in data set [2]; over 20 µM in data set [3] (setting [13]); 19.5 ± 0.72 µM in data set [4] (setting [17]); 14.2 ± 1.67 µM in data set [7]. Also, the figures for the CC50 at 5 days in data set [5] and in data set [8] were 295 ± 11 µM and 340 ± 20.1 µM, respectively. In addition, the “Ca2+-conducting activity of pUS21” value in data set [6] is listed as “can hamper the Ca^2+-mobilizing activity of pUS21”.
Consider `COC(=O)C1=C(C)NC(C)=C(C(=O)OC(C)(C)CN(C)CCC(c2ccccc2)c2ccccc2)C1c1cccc([N+](=O)[O-])c1` (stereo not shown) [Lercanidipine, lercanidipine], for which the SI in data set [1] (setting [9]) turned out to be 86.09; in data set [2], 40.55; in data set [3] (setting [14]), 16.65; in data set [4] (setting [15]) it was 105.86; in data set [7], 41.08. Besides, the EC50 in data set [1] (setting [10]) was found to be 3.32 ± 0.38 µM; in data set [2] it was 3.12 ± 0.43 µM; in data set [3] (setting [12]), 7.6 ± 0.11 µM; in data set [4] (setting [16]), 2.7 ± 0.54 µM; in data set [7], 3.08 ± 0.28 µM. Also, the EC90 in data set [1] (setting [11]) is 5.9 ± 0.11 µM; in data set [2], 12.7 ± 1.66 µM; in data set [3] (setting [13]), 19.9 ± 0.5 µM; in data set [4] (setting [17]), 14.5 ± 0.19 µM; in data set [7], 12.7 ± 1.6 µM. Besides, the CC50 at 5 days was found to be 286 ± 19.1 µM in data set [5] and 127 ± 18.8 µM in data set [8]. The “Ca2+-conducting activity of pUS21” value in data set [6] is reported as “can hamper the Ca^2+-mobilizing activity of pUS21”.
With `CC(C)Nc1nc2cc(Cl)c(Cl)cc2n1[C@H]1O[C@@H](CO)[C@H](O)[C@@H]1O` [MBV, Maribavir], the EC50 in data set [1] (setting [10]) was found to be 4.74 µM.
Take `COC(=O)C1=C(C)NC(C)=C(C(=O)OCCCN2CCC(c3ccccc3)(c3ccccc3)CC2)[C@H]1c1cccc([N+](=O)[O-])c1` [Niguldipine, niguldipine]: the SI in data set [1] was 191.39 and 178.40; in data set [3], 68.70; in data set [4], 67.93 and 76.31. Further, the EC50 in data set [1] (Human betaherpesvirus 5, 96 h) was 1.26 ± 0.31 µM; in data set [1] (setting [18]) it was 1.15 ± 0.29 µM; in data set [3] (Human betaherpesvirus 5, 96 h), 3.51 ± 0.22 µM; in data set [4] (Human betaherpesvirus 5, 96 h), 3.16 ± 0.64 µM; in data set [4] (setting [18]) it was 3.02 ± 0.16 µM. For the same compound, the concentration for an effect of 90% (EC90) in data set [1] (Human betaherpesvirus 5, 96 h) came to 7.33 ± 2.54 µM; in data set [1] (setting [18]) it was 7.24 ± 0.59 µM; in data set [3] (Human betaherpesvirus 5, 96 h), 13 ± 0.63 µM; in data set [4] (Human betaherpesvirus 5, 96 h), 15 ± 0.48 µM; in data set [4] (setting [18]) it was 12.7 ± 0.16 µM. Further, the cytotoxic concentration (CC50) in data set [5] turned out to be 205 ± 23.3 µM; in data set [8] it was 241 ± 23.9 µM. For the same compound, in data set [6], the “Ca2+-conducting activity of pUS21” value was “can hamper the Ca^2+-mobilizing activity of pUS21”.
In the case of `CCOC(=O)C1=C(C)NC(C)=C(C(=O)OC)C1c1cccc(Cl)c1Cl` (stereo not shown) [felodipine], the EC50 in data set [3] (setting [12]) and in data set [7] was 19.4 µM in each case.
